Data on three compounds can be found in US20150224190A1, “Combination of a phosphoinositide 3-kinase inhibitor and an inhibitor of the IL-8/CXCR interaction” (priority 2012, published 2015).

The subject of one assay is MDA231 LM2 cells. The assay is described as follows: Matrigel Boyden chamber invasion assay. The settings on record: 300 nM BEZ235, 350 nM NVP-BSK805, CXCR1 blocking antibody; 48 h; normalized to cell number. In kind it is cell-based, human. As to the method: FIG. 2. Blockade of CXCR1 reduces invasion and has minor effects on primary tumor growth (A) NVP-BSK805 and CXCR1 blockade but not BEZ235 decrease invasion. Bar graphs showing relative invasion of MDA231 LM2 cells seeded on Matrigel coated Boyden invasion chambers and treated with 300 nM BEZ235, 350 nM NVP-BSK805, a JKA2 inhibitor, and/or CXCR1 blocking antibody. Invasion was assessed after 48 h, data represent relative invasion values normalized to cell number and are means±SEM (n=4, *P<0.05).
Cytokine stimulation of cells was performed for 30 min in medium with 0.5% FCS supplemented with cytokines at 10 ng/ml, except for EPO at 10 U/ml. Antibody-blocking experiments were performed by adding anti-CXCR1 (R&D, MAB330, 1 μg/ml), anti-CXCR2 (R&D, MAB331, 2.5 μg/ml) or a mouse IgG antibody (R&D, 1 μg/ml) to the medium 45 min prior to lysis of the cells. Cell viability was measured using the Cell Proliferation Reagent WST-1 (Roche). Colony formation assays were performed by seeding 1000 cells/well in 6-well plates and staining single colonies after 7-14 days with 0.2% crystal violet in PBS/4% formalin. […] The number of invading cells in each treatment condition was counted 48 h after seeding by microscopy at 40× (using the mean of 4 microscopic fields) and normalized to cell number.

The next assay deals with JAK2/STAT5. The assay is described as follows: JAK2/STAT5 phosphorylation in breast cancer cell lines (pJAK2 ELISA, pSTAT5 immunoblot). Particulars: for JAK2 activation, starting at (time of treatment): in vitro, time after adding the compound. In kind it is cell-based, human. As for the experimental part:
MDA231, lung metastatic subline MDA231 LM2 (Minn et al., 2005) and SUM159 human breast cancer cells, as well as the Balb/c tumor-derived mammary cancer lines 4T-1 and 168FARN (Aslakson and Miller, 1992), were propagated as previously described. All other cell lines were obtained from and were cultured according to the protocols of ATCC. For treatment with inhibitors, cells were synchronized without serum overnight and then supplemented with culture medium containing the inhibitor(s). For experiments with doxycycline-inducible shRNAs, 500 ng/ml of doxycycline (Sigma) was added to the medium and experiments performed 48 h later. Cell viability assays, cell cycle and cell death measurements were performed at 0.5% FCS in order to avoid masking effects of growth factors present under full-serum conditions.
Cells for Western Blotting and ELISA were lysed with RIPA buffer. Xenograft lysates were prepared by lysing kryo-homogenized tumor powder in RIPA buffer (50 mM Tris-HCl pH 8, 150 mM NaCl, 1% NP-40, 0.5% sodium deoxycholate, 0.1% SDS. RIPA was supplemented with 1× protease inhibitor cocktail (Complete Mini, Roche), 0.2 mmol/L sodium-vanadate, 20 mM sodium fluoride and 1 mmol/L phenylmethylsulfonyl fluoride. For IRS-1 immunoprecipitation, cell lysates containing 500-1000 μg of protein were incubated with 1 μg of antibody and 20-50 μl of protein A-Sepharose beads (Zymed Laboratories, Inc., South San Francisco, Calif.) overnight at 4° C. Immunoprecipitates or whole cell lysates (30-80 μg) were subjected to SDS-PAGE, transferred to PVDF membranes (Immobilon-P, Millipore) and blocked for 1 hr at room temperature with 5% milk in PBS-0.1% Tween 20. Membranes were then incubated overnight with antibodies as indicated and exposed to secondary HRP-coupled anti-mouse or -rabbit antibody at 1:5-10,000 for 1 h at room temperature. Proteins were visualized using an ECL kit (Amersham) or an enhanced chemiluminescence detection system (Pierce Biotechnology). In each of the studies presented, the results shown are typical of at least three independent experiments. The following antibodies were used: anti-JAK2 (Cell Signaling), anti-JAK1 (Cell Signaling), anti-pSTAT5 (Tyr694, Cell Signaling), anti-STAT5 (STAT5A&B, Cell Signaling), anti-STAT3 (Cell Signaling), anti-pSTAT3 (Tyr705, Cell Signaling), anti-AKT pan (Cell Signaling), anti-pAKT (Thr308 and Ser473, Cell Signaling), anti-ERK2 (Santa Cruz), anti-S6 (Cell Signaling), anti-pS6 (Ser235/236, Cell Signaling), anti-PARP (Cell Signaling), anti-MCL1 (Cell Signaling), anti-BIM (EL, L and S isoforms, Cell Signaling), anti-pIGF1R/plnsR (Invitrogen), anti-IGF1Rbeta (Cell Signaling), anti-InsRbeta (Santa Cruz), anti-IRS1 (Upstate), anti-plRS1 (Tyr612, Calbiochem).
For assessing pJAK2 levels, an ELISA assay (Tyr1007/1008, Invitrogen) was applied because of cross-reactivity of all pJAK2 antibodies tested. Interleukin-8 levels in RIPA lysates, cell culture supernatants and mouse tail vein blood plasma were measured by ELISA, as well (Biolegend). […]
The present inventors applied single doses of COMPOUND A, a dual PI3K and mTOR inhibitor, and analyzed target inhibition and potential signaling pathway crosstalks after 2, 4, 8 and 20 h hours of treatment. […] While RAD001 readily activated JAK2 starting at 4 hours of treatment, they observed a later response with BKM120 treatment starting at 8 hours after adding the compound. […]
(An ELISA detects its analyte on a solid surface through an enzyme-linked reagent.)

The structures appear in SMILES notation.

With `Fc1cc(-c2cccc3ncc(-c4cnn(C5CCNCC5)c4)nc23)cc(F)c1CN1CCOCC1` [NVP-BSK805, reference compound], the relative invasion result in the assay with MDA231 LM2 cells is recorded as “decrease”. Also, the “upregulation of pSTAT5 by BEZ235” value in the assay with JAK2/STAT5 (JAK2 inhibitor together with BEZ235) is on record as “counteracted”.

Consider `Nc1cc(C(F)(F)F)c(-c2cc(N3CCOCC3)nc(N3CCOCC3)n2)cn1` [COMPOUND C, 5-(2,6-di-morpholin-4-yl-pyrimidin-4-yl)-4-trifluoromethyl-pyridin-2-ylamine], for which, in the assay on JAK2/STAT5, the “JAK2 activation, starting at (time of treatment)” value was found to be 8 h. `CO[C@H]1C[C@@H]2CC[C@@H](C)[C@@](O)(O2)C(=O)C(=O)N2CCCC[C@H]2C(=O)O[C@H]([C@H](C)C[C@@H]2CC[C@@H](OCCO)[C@H](OC)C2)CC(=O)[C@H](C)/C=C(\C)[C@@H](O)[C@@H](OC)C(=O)[C@H](C)C[C@H](C)/C=C/C=C/C=C/1C` [RAD001, reference compound]: the “JAK2 activation, starting at (time of treatment)” value in the assay on JAK2/STAT5 worked out at 4 h.
